Read-outs that look alike come from different tables or passages of the source. Some results are limits rather than exact numbers.

Series [1] is described as follows: Cytotoxicity assay (intracellular ATP levels) in Huh5-2 replicon cells. Type of series: cell-based. The note with it: human, Huh5-2 cells, read-out: HCV Replicon 1b CC50. On the procedure:
(§1) All synthesized compounds were tested against HCV genotype 1b Con-1 subgenomic replicon in the Huh-5-2 stable cell line. Specifically, their activity against viral replication was estimated by measuring firefly luciferase, which is co-expressed by the bicistronic replicon, and their half-maximal effective concentrations (EC50) were determined. In parallel, the half-maximal cytotoxic concentrations (CC50) of the compounds were estimated, and their selective indexes (SI50: CC50/ EC50) were calculated. All novel synthesized compounds were active against HCV 1b with EC50 < 1 µM except for compound 4b (Table 3).
Intracellular ATP levels were measured to determine the cytotoxicity of the compounds in the treated cells. In 96-well plates, 10^4 cells per well were seeded, incubated with serial dilutions of the compounds or DMSO as a control for 72 h at 37 °C (5% CO2) and lysed for ATP measurement. ATP levels were measured using the ViaLight HS BioAssay kit (Lonza, Basel, Switzerland) in a GloMax 20/20 single-tube luminometer (Promega) for 1 s, according to the manufacturer’s protocol. Values were normalized to total protein amounts and used to determine the compound concentration causing 50% cell death (CC50). Nonlinear regression analysis was performed using Prism 5.0 software (GraphPad Software Inc., San Diego, CA, USA).
For orientation: In antiviral work, replicon cells carry a viral genome segment that copies itself.

In series [2] the test system is HCV genotype 1b Con-1 subgenomic replicon. Kind of series: Anti-HCV luciferase assay, genotype 1b (Con1) subgenomic replicon in Huh5-2 cells. Type of series: cell-based, Hepatitis C virus. The note with it: for EC50: mean of three experiments; for HCV Replicon 1b SI50: CC50/EC50, Huh5-2 cells. As to the method:
as §1
Huh5-2 [65] and Huh7-JFH1 [66] stable cell lines harbor the subgenomic HCV reporter replicon I389luc-ubi-neo/NS3-3′/Con1/5.1 (genotype 1b; strain Con1) and I389luc-ubi-neo/NS3-3′_dg_JFH1 (genotype 2a, JFH1 strain), respectively (kindly provided by R. Bartenschlager, Heidelberg University, Heidelberg, Germany). Huh7.5-3a and Huh7.5-4a stable cell lines harbor the subgenomic HCV reporter replicon S52-SG (Feo) (AII) (genotype 3a; S52 strain) and ED43-SG (Feo) (VYG) (genotype 4a; ED43 strain), respectively (viral constructs kindly provided by C.M. Rice, Rockefeller University, New York, NY, USA). These replicons carry as a first cistron firefly luciferase (F-Luc) and neomycin phosphotransferase genes under the translational control of the HCV internal ribosome entry site (IRES), followed by HCV NS3 to NS5B proteins under the control of the EMCV IRES.
The anti-HCV assay in replicon cells was performed by seeding 1 × 10^4 cells per well in a 96-well plate. After 24 h of incubation at 37 °C (5% CO2) and medium removal, serial dilutions of the test compounds in complete DMEM were added. Cells were lysed after 72 h, and F-Luc activity was measured. The anti-HCV assay for the full-length viral construct H77S.3/GLuc2A was performed after electroporation of Huh7-Lunet cells with viral RNA. Cells were seeded in 96-well plates, the medium was removed 24 h after electroporation, and serial dilutions of the compounds in complete DMEM were added. At 72 h post-treatment, cell supernatants were collected, and G-Luc activity was measured. In addition, the cells were lysed for total protein quantification.
Relative luminescence units (RLU) were expressed as a percentage of the respective units derived from DMSO-treated cells (control). The half-maximal effective concentration (EC50), defined as the concentration of compound that reduces luciferase signal by 50%, was calculated by dose-response curve analysis using Prism 5.0 software (GraphPad Software Inc., San Diego, CA, USA).
The F-Luc activity was measured using the Luciferase Assay System (Promega, Madison, WI, USA), as recommended by the manufacturer. The G-Luc activity was measured using 12 μM coelenterazine (Promega) in assay buffer (50 mM potassium phosphate, pH 7.4, 500 mM NaCl, 1 mM EDTA). Measurements were carried out using a GloMax 20/20 single tube luminometer (Promega) for 10 s. The F-Luc activity was normalized to the total protein amount determined using the Bradford assay reagent (Pierce, Waltham, MA, USA).

Where [3] appears, read: Hepatitis C virus, Huh-5-2, 72 h, read-out: HCV Replicon 1b EC50, Huh5-2 cells, Con1 strain, F-Luc, 72 h.
Setting [4] is: Hepatitis C virus, Huh-5-2, 72 h, Huh5-2 cells, Con1 strain, F-Luc, 72 h, read-out: HCV Replicon 1b EC50.

As a reminder, the CC50 is the concentration giving 50% cytotoxicity. A word on the EC50: it is the concentration giving half of the maximal effect. On to `COC(=O)N[C@H](C(=O)N1CCC[C@H]1c1ncc(-c2cccc(C#CC#Cc3cccc(-c4cnc([C@@H]5CCCN5C(=O)[C@@H](NC(=O)OC)C(C)C)[nH]4)c3)c2)[nH]1)C(C)C` [Compound 1a, Dimethyl ((2S,2′S)-((2S,2′S)-((buta-1,3-diyne-1,4-diylbis(3,1-phenylene))bis(1H-imidazole-5,2-diyl))bis(pyrrolidine-2,1-diyl))bis(3-methyl-1-oxobutane-1,2diyl))dicarbamate], for which, in series [1], the CC50 at 72 h is above 100000 nM. In addition, the EC50 in series [2] (setting [3]) was 166 nM.

On to `COC(=O)N[C@H](C(=O)N1CCC[C@H]1c1ncc(-c2ccc(C#CC#Cc3ccc(-c4cnc([C@@H]5CCCN5C(=O)[C@@H](NC(=O)OC)C(C)C)[nH]4)cc3)cc2)[nH]1)C(C)C` [Compound 1b, Dimethyl ((2S,2′S)-((2S,2′S)-((buta-1,3-diyne-1,4-diylbis(4,1-phenylene))bis(1H-imidazole-5,2-diyl))bis(pyrrolidine-2,1-diyl))bis(3-methyl-1-oxobutane-1,2-diyl))dicarbamate], for which, in series [1], the CC50 at 72 h was above 100000 nM. Further, the “HCV Replicon 1b SI50” value in series [2] is above 1113.58. Also, the EC50 in series [2] (setting [4]) came to 89.8 nM.

By melting point is commonly meant the temperature, or range, at which the solid turns liquid. Regarding `COC(=O)N[C@@H](C(=O)N1CCC[C@H]1c1ncc(-c2cccc(C#CC#Cc3cccc(-c4cnc([C@@H]5CCCN5C(=O)[C@H](NC(=O)OC)C(C)C)[nH]4)c3)c2)[nH]1)C(C)C` [Compound 2a, Dimethyl ((2R,2′R)-((2S,2′S)-((buta-1,3-diyne-1,4-diylbis(3,1-phenylene))bis(1H-imidazole-5,2-diyl))bis(pyrrolidine-2,1-diyl))bis(3-methyl-1-oxobutane-1,2-diyl))dicarbamate], the melting point lay in the range of 103 to 105 °C. In series [1], the CC50 at 72 h was above 100000 nM. Moreover, the “HCV Replicon 1b SI50” value in series [2] is on record as above 250.06. For the same compound, the EC50 in series [2] (setting [4]) was determined as 400 nM.

Regarding `COC(=O)N[C@@H](C(=O)N1CCC[C@H]1c1ncc(-c2ccc(C#CC#Cc3ccc(-c4cnc([C@@H]5CCCN5C(=O)[C@H](NC(=O)OC)C(C)C)[nH]4)cc3)cc2)[nH]1)C(C)C` [Compound 2b, Dimethyl ((2R,2′R)-((2S,2′S)-((buta-1,3-diyne-1,4-diylbis(4,1-phenylene))bis(1H-imidazole-5,2-diyl))bis(pyrrolidine-2,1-diyl))bis(3-methyl-1-oxobutane-1,2-diyl))dicarbamate], in series [1], the CC50 at 72 h is above 100000 nM. In addition, the “HCV Replicon 1b SI50” value in series [2] is given as above 248.20. Also, in series [2] (setting [4]), the EC50 turned out to be 403 nM.

`CCOC(=O)N[C@H](C(=O)N1CCC[C@H]1c1ncc(-c2cccc(C#CC#Cc3cccc(-c4cnc([C@@H]5CCCN5C(=O)[C@@H](NC(=O)OCC)C(C)C)[nH]4)c3)c2)[nH]1)C(C)C` [Compound 3a, Diethyl ((2S,2′S)-((2S,2′S)-((buta-1,3-diyne-1,4-diylbis(3,1-phenylene))bis(1H-imidazole-5,2-diyl))bis(pyrrolidine-2,1-diyl))bis(3-methyl-1-oxobutane-1,2-diyl))dicarbamate]: the melting point was 124 to 126.7 °C. In addition, the CC50 at 72 h in series [1] is above 100000 nM. Moreover, in series [2], the “HCV Replicon 1b SI50” value is listed as above 629.72. In series [2] (setting [4]), the EC50 is 159 nM.

The compound `CCOC(=O)N[C@H](C(=O)N1CCC[C@H]1c1ncc(-c2ccc(C#CC#Cc3ccc(-c4cnc([C@@H]5CCCN5C(=O)[C@@H](NC(=O)OCC)C(C)C)[nH]4)cc3)cc2)[nH]1)C(C)C` [Compound 3b, Diethyl ((2S,2′S)-((2S,2′S)-((buta-1,3-diyne-1,4-diylbis(4,1-phenylene))bis(1H-imidazole-5,2-diyl))bis(pyrrolidine-2,1-diyl))bis(3-methyl-1-oxobutane-1,2-diyl))dicarbamate] gave a melting point of 139 to 141 °C. For the same compound, the CC50 at 72 h in series [1] was above 100000 nM. In series [2], the “HCV Replicon 1b SI50” value was above 297.44. Further, the 50% effective concentration (EC50) in series [2] (setting [4]) stood at 336 nM.

In the case of `CCCCOC(=O)N[C@H](C(=O)N1CCC[C@H]1c1ncc(-c2cccc(C#CC#Cc3cccc(-c4cnc([C@@H]5CCCN5C(=O)[C@@H](NC(=O)OCCCC)C(C)C)[nH]4)c3)c2)[nH]1)C(C)C` [Compound 4a, Dibutyl ((2S,2′S)-((2S,2′S)-((buta-1,3-diyne-1,4-diylbis(3,1-phenylene))bis(1H-imidazole-5,2-diyl))bis(pyrrolidine-2,1-diyl))bis(3-methyl-1-oxobutane-1,2-diyl))dicarbamate], in series [1], the cytotoxic concentration (CC50) at 72 h was above 100000 nM. The “HCV Replicon 1b SI50” value in series [2] was above 110.89. Moreover, the EC50 in series [2] (setting [4]) was found to be 902 nM.

`CCCCOC(=O)N[C@H](C(=O)N1CCC[C@H]1c1ncc(-c2ccc(C#CC#Cc3ccc(-c4cnc([C@@H]5CCCN5C(=O)[C@@H](NC(=O)OCCCC)C(C)C)[nH]4)cc3)cc2)[nH]1)C(C)C` [Compound 4b, Dibutyl ((2S,2′S)-((2S,2′S)-((buta-1,3-diyne-1,4-diylbis(4,1-phenylene))bis(1H-imidazole-5,2-diyl))bis(pyrrolidine-2,1-diyl))bis(3-methyl-1-oxobutane-1,2-diyl))dicarbamate] yielded a melting point of 136 to 138 °C. The CC50 at 72 h in series [1] is above 100000 nM. The EC50 in series [2] (setting [4]) was above 1000 nM.

The compound `COC(=O)N[C@@H](CC(C)C)C(=O)N1CCC[C@H]1c1ncc(-c2cccc(C#CC#Cc3cccc(-c4cnc([C@@H]5CCCN5C(=O)[C@H](CC(C)C)NC(=O)OC)[nH]4)c3)c2)[nH]1` [Compound 5a, Dimethyl ((2S,2′S)-((2S,2′S)-((buta-1,3-diyne-1,4-diylbis(3,1-phenylene))bis(1H-imidazole-5,2-diyl))bis(pyrrolidine-2,1-diyl))bis(4-methyl-1-oxopentane-1,2-diyl))dicarbamate] had a melting point of 103.1 to 105.3 °C. Besides, the CC50 at 72 h in series [1] was above 100000 nM. Besides, in series [2], the “HCV Replicon 1b SI50” value is reported as above 879.51. Also, the EC50 in series [2] (setting [4]) was 114 nM.

Regarding `CCOC(=O)N[C@@H](CC(C)C)C(=O)N1CCC[C@H]1c1ncc(-c2cccc(C#CC#Cc3cccc(-c4cnc([C@@H]5CCCN5C(=O)[C@H](CC(C)C)NC(=O)OCC)[nH]4)c3)c2)[nH]1` [Compound 7a, Diethyl ((2S,2′S)-((2S,2′S)-((buta-1,3-diyne-1,4-diylbis(3,1-phenylene))bis(1H-imidazole-5,2-diyl))bis(pyrrolidine-2,1-diyl))bis(4-methyl-1-oxopentane-1,2-diyl))dicarbamate], the CC50 at 72 h in series [1] is above 100000 nM. For the same compound, the “HCV Replicon 1b SI50” value in series [2] is recorded as above 1021.55. In addition, the EC50 in series [2] (setting [3]) amounted to 97.8 nM; in series [2] (Huh5-2 cells, Con1 strain, F-Luc, 72 h, read-out: HCV Replicon 1b EC50), 97.9 nM.

In the case of `COC(=O)N[C@H](C(=O)N1CCC[C@H]1c1ncc(-c2ccc(C#CC#Cc3ccc(-c4cnc([C@@H]5CCCN5C(=O)[C@@H](NC(=O)OC)c5ccccc5)[nH]4)cc3)cc2)[nH]1)c1ccccc1` [Compound 9b, Dimethyl ((1S,1′S)-((2S,2′S)-((buta-1,3-diyne-1,4-diylbis(4,1-phenylene))bis(1H-imidazole-5,2-diyl))bis(pyrrolidine-2,1-diyl))bis(2-oxo-1-phenylethane-2,1-diyl))dicarbamate], in series [1], the CC50 at 72 h was above 100000 nM. In series [2], the “HCV Replicon 1b SI50” value was above 542.59. The EC50 in series [2] (setting [4]) was 184 nM.

As to `COC(=O)N[C@H](C(=O)N1CCC[C@H]1c1nc(-c2ccc(-c3ccc(-c4c[nH]c([C@@H]5CCCN5C(=O)[C@@H](NC(=O)OC)C(C)C)n4)cc3)cc2)c[nH]1)C(C)C` [Daclatasvir, reference compound], the CC50 at 72 h in series [1] was 17700 nM. The “HCV Replicon 1b SI50” value in series [2] is 655,556. Further, in series [2] (setting [4]), the EC50 is 0.027 nM.
